In PubChem BioAssay (NCI) one finds TGI and GI50 data, which are given here for eleven compounds.

Common to all, as to assay: NCI anticancer screen, dose series, 48 h
For experiment [1], the system named is HT29 colon.
For experiment [2], the system named is HOP-18 NSCLC.
The subject of experiment [3] is SK-MEL-2 melanoma.
The subject of experiment [4] is NCI-H23 lung.
For experiment [5], the system named is RXF 393 renal.
For experiment [6], the system named is MALME-3M melanoma.
Experiment [7] concerns HCT-116 colon.
Experiment [8] relates to HCC-2998 colon.
Experiment [9] concerns KM20L2 colon.
Experiment [10] concerns EKVX NSCLC.
The subject of experiment [11] is COLO 205 colon.
Experiment [12] has as its system MOLT-4 leukemia.
In experiment [13] the test system is SR leukemia.
In experiment [14] the test system is IGROV1 ovarian.
Experiment [15] relates to SF-268 CNS.
Experiment [16] deals with SW-620 colon.
Experiment [17] concerns KM12 colon.
Experiment [18] concerns MDA-MB-231 breast.

Where “and” joins values, the source holds several entries; their conditions need not be identical. Equal values may be shown once.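 These data come from cells grown in 96-well plates and exposed to compound for 48 hours at five concentrations. At the GI50, growth is halved. TGI denotes the concentration required for complete inhibition of growth.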

As for `COc1ccc2c(c1)O[C@H]1c3ccc(O)cc3OC[C@@H]21`, the TGI in experiment [1] is over 100 µM; in [2], over 100 µM; in [3], 72.7 µM; in [4], 86.5 µM; in [5] it was 54.9 µM; in experiment [6], over 100 µM. Moreover, the TGI in experiment [7] is over 100 µM; in experiment [8], 53 µM; in experiment [9], over 100 µM; in experiment [10] it was over 100 µM; in experiment [11], 57 µM; in [12] it was 55.2 µM. Moreover, the TGI in experiment [13] was 43.7 µM; in [14] it was 71.6 µM; in experiment [15], over 100 µM; in experiment [16], over 100 µM.
Consider `O=C(O)c1cncc(C(=O)O)c1`, for which the TGI in [17], in [1], in [3], in experiment [4], in experiment [5] and in [6] was over 100 µM throughout. In addition, the TGI in experiment [7], in [18], in experiment [10], in experiment [11], in [12] and in experiment [14] was over 100 µM throughout. Also, the TGI in experiment [15] and in experiment [16] was over 100 µM each time.
For the compound `O=c1[nH]cc(N(CCCl)CCCl)c(=O)[nH]1`, the TGI came to 232 µM in experiment [17]; 306 µM in experiment [1]; 199 µM in experiment [2]; 204 µM in experiment [3]; 97.6 µM in [4]; 81.1 µM in experiment [5]. Further, the TGI came out at 106 µM in [6]; 179 µM in experiment [7]; 211 µM in experiment [18]; 136 µM in experiment [8]; 196 µM in experiment [9]; 230 µM in [10]. Further, the TGI was found to be 157 µM in experiment [11]; 28.3 µM in experiment [12]; 55.1 µM in experiment [13]; 266 µM in [14]; 192 µM in experiment [15]; 249 µM in experiment [16].
Take `COc1cccc(C2C(C(=O)O)=C(CO)Oc3cc4c(cc32)OCO4)c1` (configuration not stated): the TGI in experiment [1], in [2], in [3], in experiment [4], in [6] and in experiment [9] was over 100 µM throughout. Also, the TGI in experiment [10], in experiment [11], in experiment [12], in experiment [14], in experiment [15] and in [16] was over 100 µM throughout.
`c1ccc(SC(Sc2ccccc2)c2ccc3c(c2)OCO3)cc1`: the TGI in [17], in [1], in [3], in experiment [4], in [5] and in experiment [6] was over 100 µM throughout. For the same compound, the TGI in experiment [7], in [18], in [10], in experiment [12], in [13] and in [14] was over 100 µM in each case. Also, the TGI in experiment [15] and in [16] was over 100 µM each time.
On to `COc1ccc2c[n+](C)c3c4cc(OC)c(OC)cc4ccc3c2c1`, for which the TGI in experiment [17] is 3.85 µM; in experiment [1], 23.1 µM; in [2] it was over 96.1 µM; in experiment [3], 27.7 µM; in experiment [4] it was 13.6 µM; in experiment [5] it was 35.2 µM. For the same compound, the TGI in experiment [6] is 42 µM; in experiment [7], 16.8 µM; in [18] it was 18.3 µM; in experiment [8] it was 34.3 µM; in experiment [9], 29.7 µM; in experiment [10], 54.7 µM. For the same compound, the TGI in experiment [11] was determined as 5.49 µM; in experiment [12], 32.3 µM; in experiment [13], 14.4 µM; in experiment [14], 22.1 µM; in [15], 13.2 µM; in [16] it was 16.4 µM.
For `CCN(CC)CCC(=O)c1ccccc1`, the TGI in experiment [17] was over 100 µM; in [1], 70.2 µM; in [2], 30.1 µM; in [3], over 100 µM; in experiment [4], 45.6 µM; in experiment [5] it was 34.7 µM. Also, the TGI in [7] is 31.8 µM; in [8] it was over 100 µM; in experiment [9], 49.5 µM; in [10] it was over 100 µM; in experiment [12], 42.2 µM; in [13], 35.3 µM. Moreover, the TGI in [14] was over 100 µM; in experiment [15], 40.5 µM; in [16], 41.1 µM.
`O=C(O)/C=C/c1cnc[nH]1`: the TGI in [17], in [1], in experiment [2], in experiment [3], in [4] and in [5] was over 500 µM in each case. Also, the TGI in [6], in experiment [7], in [8], in experiment [9], in experiment [10] and in [11] was over 500 µM in each case. Besides, the TGI in experiment [12], in experiment [14], in experiment [15] and in [16] was over 500 µM throughout. Further, the GI50 was over 500 µM in experiment [9]; > 500 µM and 70 µM in [15].
Turning to `CC(=O)[O-].CC(=O)[O-].O=C(N/N=C/c1cc(Cl)cc(Cl)c1[OH2+])c1ccncc1.[Zn+2]`, the TGI in experiment [17], in [4], in [5], in [6], in experiment [7] and in experiment [8] was over 100 µM throughout. Also, the TGI in experiment [9], in [10], in [11], in experiment [12], in experiment [13] and in experiment [14] was over 100 µM each time. Besides, the TGI in experiment [15] and in experiment [16] was over 100 µM throughout.
As for `CC(=O)NC(CCCCNC(=O)OC(C)(C)C)C(=O)O` (configuration not stated), the TGI in experiment [1], in [6], in experiment [7], in [18], in [8] and in [10] was over 100 µM each time. Also, the TGI in experiment [11], in [12], in experiment [14], in experiment [15] and in [16] was over 100 µM each time.
As to `CCOC(=O)C1(C(=O)OCC)CSC1`, the TGI in experiment [17], in [1], in [4], in experiment [5], in experiment [7] and in [18] was over 100 µM throughout. The TGI is 0.853 µM in experiment [8]; over 100 µM in [11]; over 100 µM in experiment [12]; over 100 µM in experiment [13]; over 100 µM in experiment [15]; over 100 µM in [16].
